Where “and” joins values, the source holds several entries; their conditions need not be identical. Equal entries are not always repeated. Entries after “also recorded” stand apart in the source; their conditions may differ. Where no end group is shown, it is not given here.
Tests used:
[1] = target: T1, H558R-SCN5A+R282H-C373Y-SCN5A channels (Homo sapiens, UniProt Q14524, H558R); experiment: MTSET block of whole-cell sodium current, H558R-SCN5A+R282H-C373Y-SCN5A; assay type: cell-based; details: 1 μmol/L MTSET, after 10 minutes, 1 μg + 1 μg, HEK293
T1 construct: expressed in transfected cells; host or cells: HEK293
Description: (§1) Expression of hNav1.5 in HEK293 Cells: Transient transfections of SCN5A expressed in GFP-IRES were performed in human embryonic kidney cells (HEK293) with the Polyfect transfection kit (Qiagen, Valencia, Calif.) according to the manufacturer's protocol for 24 hours.
(§2) Electrophysiology: Macroscopic sodium currents from transfected cells were recorded using the whole-cell configuration of the patch-clamp technique as previously described. (Deschenes I, et al., Cardiovasc Res. 2000; 46:55-65). Cells that emitted green fluorescence and expressed INa-like currents were considered to express mutants and/or polymorphisms of hNav1.5. Patch electrodes were made from 8161 Corning glass (Dow-Corning, Midland, Mich.). Low-resistance electrodes (<2 MΩ) were used, and a routine-series resistance compensation of an Axopatch 200A was performed to values >80% to minimize the voltage-clamp errors. Voltage-clamp command pulses were generated by a microcomputer using PCLAMP software version 9.02 (Axon Instruments, Foster City, Calif.). To stabilize the current, experiments were performed 10 minutes after entering whole-cell configuration. Membrane currents were filtered at 5 kHz and digitized with 12-bit resolution. […]
(§3) Voltage dependence of steady-state inactivation was determined by 500-ms prepulses ranging from −140 to −30 mV. […]

C373Y-SCN5A channels = target: T2, C373Y-SCN5A channels (Homo sapiens, UniProt Q14524, C373Y); assay type: cell-based
T2 construct: expressed in transfected cells; host or cells: HEK293
Description: as §1, §2, §3

[2] = system: WT-SCN5A+C373Y-SCN5A channels; assay type: cell-based, human
Description: as §1, §2, §3

YFP-1022 = experiment: FRET folding study of non-mutated channel construct in HEK293 cells; assay type: cell-based, human; details: non-mutated YFP-1022 co-expressed with peptide
From the text: Image Analysis and Calculation of Fluorescence Resonance Energy Transfer Ratios: Images were acquired with and Olympus IX71 fluorescent microscope that was fitted with a Hamamatsu ORCA-ER charge coupled device (12 bit) and controlled by the SLIDEBOOK software package from Intelligent Imaging Innovations (Denver, Colo.). Filter cube specifications for the fluorescent channels were as follows for excitation and emission, respectively: enhanced cyan fluorescent protein (CFP), 430±25 and 470±30 nm; enhanced yellow fluorescent protein (YFP), 500±20 and 535±30 nm, and fluorescence resonance energy transfer (FRET), 430±25 and 535±30 nm.
Image analysis involved three basic operations: subtraction of background autofluorescence and blurred light, quantification of fluorescence intensity, and calculation of a corrected FRET (FRETc) using the following equation: FRETc=(IDA−aIAA−dIDD)/IDD,
Where IDA is the fluorescence intensity of the cell measured from the FRET filter set and IDD and IAA are the fluorescent intensities of the same cell measured from the CFP (donor) and YFP (acceptor) filter sets, respectively. The cross-talk coefficients, a and d, are considered constant and a property of our microscope's filter sets, with a=0.03 and d=0.63. The corrected FRET ratio (FRETc) includes normalization to IDD to correct for variances in protein expression from cell to cell. […]

WT channels (Nav1.5) = target: T3, WT channels (Nav1.5) (Homo sapiens, UniProt Q14524); experiment: Whole cell patch clamp of sodium currents in HEK293 cells co-expressing WT channels and polymorphic peptide; assay type: cell-based
T3 construct: expressed in transfected cells; host or cells: HEK293
From the text: Creation of Channel Fragments: Channel fragments were created by amplifying a small piece of either the wild type or the H558R polymorphic channel. These pieces were ligated into either the pcDNA3 vector or the pECFP-N3 vector (BD Biosciences Clonetech). The sequences for the fragments are: Wild Type 20 amino acid-[…] (SEQ ID NO: 10), Polymorphic 40 amino acid-[…] (SEQ ID NO: 4), and polymorphic 20 amino acid-[…] (SEQ ID NO: 3).
Expression of Nav1.5 and Fragments in HEK293 Cells: Transient transfection of Nav1.5 and Nav1.5 fragments into human embryonic kidney (HEK293) cells was accomplished using the Polyfect transfection kit (Qiagen, Valencia, Calif.) according to the manufacturer's protocol for 24 hours. When channels were expressed alone, […] of channel cDNA was used. For co-transfections, 1 μg of channel cDNA and 1 μg of fragment cDNA were combined.
Electrophysiology: Macroscopic sodium currents from transfected cells were recorded using the whole cell configuration of the patch clamp technique as previously described (Deschenes, I., et al., 2000 Cardiovasc. Res. 46: 55-65). Cells that emitted green fluorescence were considered successfully transfected. Patch electrodes were made from 1.5 mm thin walled glass capillaries (World Precision Instruments, Sarasota, Fla.). Low resistance electrodes (<2MΩ) were used, and a routine series resistance compensation of an Axopatch 200A was preformed to values >80% to minimize voltage clamp errors. Voltage clamp command pulses were generated by a microcomputer using PCLAMP software version 9.02 (Axon Instruments, Foster City, Calif.). To allow currents to stabilize, experiments were performed 10 minutes after entering whole cell configuration. Membrane currents were filtered at 5 kHZ and digitized with 12-bit resolution. The internal solution contained (in mmol/L) NaCl 35, CsF 105, EGTA 10, and Cs-HEPES 10 adjusted to pH7.4. […]
Whole cell sodium current densities were measured by dividing the peak current obtained from stepping in 10 mV intervals from −80 to 30 mV from the holding potential of −120 mV by the cell capacitance. Cell capacitance was determined by integrating the area under the capacitive transient of a pulse from −80 mV to −70 mV. […]
Voltage dependence of steady state inactivation was determined by 500 ms prepulses ranging from −140 to −30 mV (FIG. 7B inset). […]
Conductance was calculated from peak current obtained by holding the resting membrane potential at −120 mV and stepping in 10 mV intervals from −80 mV to 20 mV according to the equation: G=I/(Vm−Vrec)
The conductance was also fit to a Boltzmann distribution. Time constant of inactivation was measured by fitting individual current traces from the peak current to the end of the pulse with a single exponential: I(t)=A*exp(−t/τ)

[3] = system: hNav1.5 protein fragments centered on 558 fused to YFP; experiment: FRET between hNav1.5 protein fragments centered on 558 fused to CFP or YFP; assay type: cell-based, human; details: coexpressed with homotypic YFP fragment
From the text: (§4) The beam splitter was the Chroma 86002v2bs multiband beam splitter for ECFP and EYFP (Rockingham, Vt.).
(§5) The corrected FRET ratio was defined as FRETc/IDD.

[4] = target: T4, hNav1.5 protein fragments centered on 558 fused to YFP (Homo sapiens, UniProt Q14524); experiment: as above; assay type: cell-based; details: coexpressed with heterotypic H558-YFPf, internalized compartments
T4 construct: Fragments centered on 558 (40 amino acids) were fused to either CFP or YFP; expressed in transfected cells
From the text: as §4, §5

[5] = WT channels treated with polymorphic peptide, HEK293

C[N+](C)(C)CCSS(C)(=O)=O.[Br-] [MTSET, [2-(trimethylammonium)ethyl]methanethiosulfonate bromide]
reduction of whole-cell sodium current [1]: 48.1±10.0% and 50%
decrease of peak current density (C373Y-SCN5A channels): does not significantly decrease peak current densities; also recorded: does not block
decrease of whole-cell sodium current [2]: 42.6±9.5% and 50%

GSEADFADDENSTAGESESHRTSLLVPWPLRRTSAQGQPS [R558-40aa, 40 amino acid fragment of Nav1.5 containing the H558R polymorphism, expressed from cDNA]
FRETc compared with YFP-1022 alone (YFP-1022): similar
current density (WT channels (Nav1.5); HEK293 cells, WT channels co-expressed with the 40 amino acid fragment, WT alone −337.7±105.8): −474.1±125.9 pA/pF
Conductance (V1/2) (WT channels (Nav1.5); [5]): −40.2 ± 3.3 mV
Steady State Inactivation (V1/2) (WT channels (Nav1.5); [5]): −90.0 ± 1.6 mV
Time Constant of Inactivation compared to WT (WT channels (Nav1.5); WT channels with peptide, FIG. 7D): behaved similarly to WT

H558-CFPf: hNav1.5 fragment centered on 558 (40 amino acids) with H558, fused to CFP (GSEADFADDENSTAGESESHHTSLLVPWPLRRTSAQGQPS; also: fused to CFP (carrier left off))
FRETc [3]: 0.01±0.01

NSTAGESESHRTSLLVPWPL [R558-20aa, 20 amino acid fragment of Nav1.5 containing the H558R polymorphism, expressed from cDNA]
FRETc compared with YFP-1022 alone (YFP-1022): similar

R558-CFPf: hNav1.5 fragment centered on 558 (40 amino acids) with R558, fused to CFP (GSEADFADDENSTAGESESHRTSLLVPWPLRRTSAQGQPS; also: fused to CFP (carrier left off))
FRETc [3]: 0.01±0.01
FRETc [4]: 0.04±0.02

— patent publication US7625863B2, “Treatment of patients with dysfunctional cardiac sodium channels” (The MetroHealth System, priority 2006, dated 2009)
